Reference: patent US20260176274A1, “ENAMINE N-OXIDE TOOLS FOR TARGET IDENTIFICATION APPLICATIONS” (DANA-FARBER CANCER INSTITUTE, INC., priority 2022, published 2026)

What was measured:
BRD2/3/4 [1] = molecular target: T1, BRD2/3/4 (Homo sapiens, UniProt O60885); assay: Pulldown-MS chemoproteomics in HEK293T cell lysate, (+)-JQ1 probe; format: binding; settings: filter 3 quantified peptides in 3 replicates
T1 construct: In Vitro BARS Labeling of Endogenous Target Proteins in Cell Lysate; endogenous in cells; host or cells: HEK293T lysate
Description: (§1) The same procedure as the “Streptavidin pull-down” was followed up to the wash steps. After the final wash, the supernatant was completely removed. Formamide elution buffer (95% v/v formamide, 5% v/v 100 mM sodium acetate, pH 10, 50 μL) was then added to the beads with gentle mixing. The beads were heated to 95° C. for 10 min, pelleted, and the supernatant was removed while hot and then allowed to cool to rt. The formamide elution was repeated a second time for a combined eluate volume of approximately 100 μL. The eluate samples were then submitted to the Dana-Farber TPD Core facility for further processing. […]
(§2) Peptides were analyzed on an Ultimate™ 3000 RSLCnano system coupled to a Tribrid series mass spectrometer (Thermo Fisher Scientific™). […]
(§3) RAW file processing, false discovery rate filtering (<1%), and protein roll-up and MS1 intensity-based label-free quantification (Minora algorithm) were achieved using Proteome Discoverer 2.5 (Thermo Fisher Scientific™). […] Peptides were quantified by precursor ion abundance and summed across proteins.
(§4) Proteins were filtered to include those with three or more unique peptides quantified across four replicate treatments, unless otherwise stated. […] All peptides of target proteins quantified at the single peptide level were manually inspected to ensure accuracy in quantification.

BRD2/3/4 [2] = assay: as above; format: binding, human; settings: filter 1 quantified peptide in 3 replicates; against competitor or enantiomer controls
Description: as §1, §2, §3, §4

BRD4 = molecular target: T2, BRD4 (Homo sapiens, UniProt O60885); assay: In cellulo BARS labeling in live HEK293T cells, immunoblot against BRD4; format: cell-based; settings: probe 5 μM, B2(OH)4 100 μM 10 min
T2 construct: In Cellulo BARS Labeling of Endogenous Target Proteins; endogenous in cells; host or cells: HEK293T
Description: HEK293T cells were cultured in DMEM containing 10% FBS (Sigma), 100 units/mL penicillin, and 0.1 mg/mL streptomycin (Sigma) in a humidified chamber at 37° C. under an ambient atmosphere with 5% CO2. After culturing to >80% confluency in 150 mm plates, the plates were removed from the incubator, the media was aspirated, and the cells were trypsinized at 37° C. with 0.25% trypsin, 0.1% EDTA in HBSS (3 mL). After 3 min, complete growth medium (7 mL) was added to the detached cells, and the cell suspension was transferred to a 50 mL centrifuge tube. Cells were pelleted (400×g, 4 min, 23° C.) and washed with 2×20 mL PBS, pH 7.4. At this point, the density of the cell suspension in PBS was determined by the trypan blue exclusion method. The cells were pelleted once more, and the volume of PBS was adjusted to produce a cell suspension with a final density of 2×10^7 cells/mL. The cell suspension was aliquoted into 2 mL microcentrifuge tubes (3×1 mL, 2×10^7 cells each). […] Competitor 21′ (50 μM final concentration, from a 500 mM stock in DMSO) was also added to the third tube. The samples were incubated at 37° C. with end-over-end rotation. After 2 h of incubation, the cells were pelleted (400×g, 4 min, 23° C.) and washed once with PBS, pH 7.4.

C#CCCC[N+](C)([O-])/C(Br)=C/C(Cl)CCCC(=O)NCCCCCCNC(=O)C[C@@H]1N=C(c2ccc(Cl)cc2)c2c(sc(C)c2C)-n2c(C)nnc21 (stereo partly drawn) [22′a, (Z)-1-Bromo-3-chloro-7-((6-(2-((S)-4-(4-chlorophenyl)-2,3,9-trimethyl-6H-thieno[3,2-f][1,2,4]triazolo[4,3-al][1,4]diazepin-6-yl)acetamido)hexyl)amino)-N-methyl-7-oxo-N-(pent-4-yn-1-yl)hept-1-en-1-amine oxide]
chemoproteomics protein identified (BRD2/3/4 [1]): BRD4 was identified
chemoproteomics hits (BRD2/3/4 [2]): BRD2/3/4 were identified as hits
target identification in live HEK293T cells (BRD4) (BRD4): successfully executed
